The test system of one experiment is bacterial dipeptidases. Particulars: cited from earlier work.
The subject of a further experiment is P. aeruginosa ATCC 27853. The experiment is described as follows: MIC/MBC by broth microdilution (CLSI). The format is cell-based, Pseudomonas aeruginosa. The note with it: geometric mean, wild-type reference strain. Here is the method:
(§1) The statistical significance of the difference in geometric means of MIC and MBC was determined with the Mann-Whitney U test.
Background: Dilution methods test growth across graded concentrations, often in twofold steps.

The test system of a further experiment is K. pneumoniae GRP-0107. The experiment is described as follows: MIC/MBC by broth microdilution (CLSI). The note with it: geometric mean, wild-type strain. It counts as cell-based, Klebsiella pneumoniae. Here is the method: as §1
Another experiment deals with P. aeruginosa GRP-0019. It counts as cell-based. The note with it: geometric mean, broth microdilution, wild-type strain. Here is the method: as §1
In a further experiment the test system is P. aeruginosa GRP-0049. It counts as cell-based. The note with it: geometric mean, broth microdilution, MDR carbapenem susceptible strain. Here is the method: as §1
Another experiment deals with P. aeruginosa GRP-0036. The format is cell-based. The note with it: geometric mean, broth microdilution, MDR carbapenem resistant strain. Here is the method: as §1

In brackets after ≈: the same amount, converted by molar mass.

`CC1(C)C[C@@H]1C(=O)N/C(=C\CCCCSC[C@H](N)C(=O)O)C(=O)O` [cilastatin]: the “inhibition of bacterial dipeptidases” value in the experiment with bacterial dipeptidases is “very inefficient inhibitor”.

`C[C@@H](O)[C@H]1C(=O)N2C(C(=O)O)=C(SCCN=CN)C[C@H]12` [imipenem]: the “MIC [range]” value against P. aeruginosa ATCC 27853 stood at 1.0 µg/mL (≈ 3.34 µM); against K. pneumoniae GRP-0107 it was 0.5 µg/mL (≈ 1.67 µM); with P. aeruginosa GRP-0019 it was 0.5 µg/mL (≈ 1.67 µM); against P. aeruginosa GRP-0049, 1.2 µg/mL (≈ 4.01 µM); in the experiment on P. aeruginosa GRP-0036, 8 µg/mL (≈ 26.7 µM).

The values above are taken from article PMC6364906 (PLoS ONE, 2019).
